Values joined by “and” are separate entries in the source; they are usually repeats but may differ in a detail not shown here. Equal entries are not always repeated.
Legend:
[1] = tested on: C. elegans; test: C. elegans motor phenotype scoring on solid media (Punc/jerky-unc, coiled, paralyzed), wild-type young adults; assay type: in vivo, Caenorhabditis elegans; details: for any phene, mean % fraction of young adults exhibiting any phenotype (coiled, jerky-Unc or paralyzed) / atypical locomotion (number of animals) / coiled (number of animals) / no phene (number of animals) / paralyzed (number of animals) / any phene (mean % fraction of young adults exhibiting any phenotype: coiled, jerky-Unc or paralyzed): one hour; for any phene, mean % fraction of young adults exhibiting any phenotype (coiled, jerky-Unc or paralyzed) / any phene (mean % fraction of young adults exhibiting any phenotype: coiled, jerky-Unc or paralyzed): mean of three biological replicates; for atypical locomotion (number of animals) / coiled (number of animals) / no phene (number of animals) / paralyzed (number of animals): young adults, 20 animals per trial, single replicate counts; for EC50: Caenorhabditis elegans, any motor phenotype after 1 h on solid media, ± 95% CI, read-out: C. elegans - motor disruption EC50
[2] = biological target: T1, rat VAChT (Rattus norvegicus, UniProt Q62666); test: [3H]Vesamicol competitive radioligand binding, PC12 cells expressing ratVAChT; details: for Ki: [3H]Vesamicol displacement, mean, read-out: ratVAChT Ki; for specific binding in % of total binding (corrected by nonspecific binding NB), mean: rVAChT-PC12, 21°C, 1% DMSO
T1 construct: expressed in transfected cells; host or cells: rat PC12 (PC12 A123.7) cells, stably transfected; shared by Dr. Ali Roghani (Texas Tech University)
T1 sequence (Q62666 1-530): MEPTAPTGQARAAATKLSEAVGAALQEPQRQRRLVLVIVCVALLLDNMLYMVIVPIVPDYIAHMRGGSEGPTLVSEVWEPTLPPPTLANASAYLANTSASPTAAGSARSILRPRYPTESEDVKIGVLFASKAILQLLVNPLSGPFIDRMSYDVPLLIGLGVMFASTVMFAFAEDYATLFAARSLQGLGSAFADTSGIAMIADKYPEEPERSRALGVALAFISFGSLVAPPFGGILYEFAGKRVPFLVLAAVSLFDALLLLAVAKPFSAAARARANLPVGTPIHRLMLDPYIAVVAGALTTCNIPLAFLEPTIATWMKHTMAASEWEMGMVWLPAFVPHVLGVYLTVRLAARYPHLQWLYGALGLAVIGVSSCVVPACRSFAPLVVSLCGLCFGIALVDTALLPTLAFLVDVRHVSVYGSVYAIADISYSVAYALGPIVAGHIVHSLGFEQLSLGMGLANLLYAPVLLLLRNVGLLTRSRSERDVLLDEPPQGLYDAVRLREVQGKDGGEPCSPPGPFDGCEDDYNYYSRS

[3] = tested on: Pristionchus pacificus; test: Pristionchus pacificus motor disruption dose-response on solid media, 1 h; details: for mean % any phene (coiled, jerky-Unc or paralyzed): Pristionchus pacificus young adults, mean of three biological replicates
[4] = tested on: Dirofilaria immitis microfilariae; test: Dirofilaria immitis microfilariae immobility assay (DiroImager, 72 h); details: for % effect (motility), DIROIM MF: Dirofilaria immitis microfilariae; for EC50: Dirofilaria immitis, 72 h, read-out: Dirofilaria immitis filariae EC50
Method in brief: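 Motility read after 72 h drug exposure with an image-based high-throughput plate imager, 1% DMSO medium serving as negative control. Missouri-isolate microfilariae, roughly 250 per well, freshly purified and cultured in supplemented RPMI 1640.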

[5] = tested on: Dirofilaria immitis L3/L4; test: Dirofilaria immitis L3/L4 motility assay (DiroImager, 72 h); details: for % effect (motility), DIROIM L4: Dirofilaria immitis L4
[6] = tested on: C. elegans; test: Suppression of trichlorfon (AChE inhibitor) paralysis, double dose-response, scored after 80 min; assay type: in vivo, Caenorhabditis elegans; details: for EC50: Caenorhabditis elegans, ± 95% CI; for % para (percentage of animals able to adopt a clear sinusoidal wave pattern upon touch on the nose): wild-type, bio rep 1-3

CC1CCC(N2CCN(c3ccc([N+](=O)[O-])cc3)CC2)CC1 (centres unmarked) [Nemacol-5]
any phene, mean % fraction of young adults exhibiting any phenotype (coiled, jerky-Unc or paralyzed) ([1]; 3.75uM): 3.333%
atypical locomotion (number of animals) ([1]; 3.75uM): 0 and 3 and 1
coiled (number of animals) ([1]; 3.75uM): 0
no phene (number of animals) ([1]; 3.75uM): 20 and 17 and 19
paralyzed (number of animals) ([1]; 3.75uM): 0
any phene, mean % fraction of young adults exhibiting any phenotype (coiled, jerky-Unc or paralyzed) ([1]; 15uM): 97.5%
atypical locomotion (number of animals) ([1]; 15uM): 9 and 12 and 13
coiled (number of animals) ([1]; 15uM): 10 and 6 and 5 and 4
no phene (number of animals) ([1]; 15uM): 0 and 3
paralyzed (number of animals) ([1]; 15uM): 1 and 2 and 0 and 3 and 5
any phene, mean % fraction of young adults exhibiting any phenotype (coiled, jerky-Unc or paralyzed) ([1]; 60uM): 100%
atypical locomotion (number of animals) ([1]; 60uM): 1 and 3 and 0 and 2 and 16 and 15
coiled (number of animals) ([1]; 60uM): 16 and 12 and 14 and 13 and 0
no phene (number of animals) ([1]; 60uM): 0
paralyzed (number of animals) ([1]; 60uM): 3 and 5 and 6 and 4
EC50 [1]: 7.3 ± 3.8 µM
Ki [2]: 0.376 µM
mean % any phene (coiled, jerky-Unc or paralyzed) ([3]; conc 3.75, observed at one hour): 0%
mean % any phene (coiled, jerky-Unc or paralyzed) ([3]; conc 15, observed at one hour): 15%
mean % any phene (coiled, jerky-Unc or paralyzed) ([3]; conc 60, observed at one hour): 100%
EC50 ([3]; Pristionchus pacificus, 1 h, read-out: P. pacificus motor disruption EC50): 16.5 µM
% effect (motility), DIROIM MF ([4]; 0.08 µM): 0%
% effect (motility), DIROIM MF ([4]; 0.4 µM): 0%
% effect (motility), DIROIM MF ([4]; 2 µM): 20%
% effect (motility), DIROIM MF ([4]; 10 µM): 80%
% effect (motility), DIROIM MF ([4]; 50 µM): 100%
EC50 [4]: 4.5 µM
% effect (motility), DIROIM L4 ([5]; 0.016 µM): 5%
% effect (motility), DIROIM L4 ([5]; 0.08 µM): 0%
% effect (motility), DIROIM L4 ([5]; 0.4 µM): 0%
% effect (motility), DIROIM L4 ([5]; 2 µM): 10%
% effect (motility), DIROIM L4 ([5]; 10 µM): 100%
% effect (motility), DIROIM L4 ([5]; 50 µM): 100%
activity against D. immitis (EC50) ([5]; either D. immitis assay of Fig. 4c): low micromolar activity

O=[N+]([O-])c1ccc(N2CCN(C3CCCCCC3)CC2)cc1 [Nemacol-19]
any phene (mean % fraction of young adults exhibiting any phenotype: coiled, jerky-Unc or paralyzed) ([1]; 3.75uM, third c14 line of each analog): 43.3333%
any phene (mean % fraction of young adults exhibiting any phenotype: coiled, jerky-Unc or paralyzed) ([1]; 15uM, second c14 line of each analog): 97.5%
EC50 [1]: 4.1 ± 1.4 µM
Ki [2]: 0.462 µM
% effect (motility), DIROIM MF ([4]; 0.016 µM): 0%
% effect (motility), DIROIM MF ([4]; 0.08 µM): 0%
% effect (motility), DIROIM MF ([4]; 0.4 µM): 0%
% effect (motility), DIROIM MF ([4]; 2 µM): 0%
% effect (motility), DIROIM MF ([4]; 10 µM): 40%
EC50 [4]: 10.7 µM
% effect (motility), DIROIM L4 ([5]; 2 µM): 0%
% effect (motility), DIROIM L4 ([5]; 10 µM): 0%
% effect (motility), DIROIM L4 ([5]; 50 µM): 100%

O[C@@H]1CCCC[C@H]1N1CCC(c2ccccc2)CC1 [minus Vesamicol]
specific binding in % of total binding (corrected by nonspecific binding NB), mean ([2]; competitor 1.00E-05 M, experiment 2019-10-30, 2.92E-09 M 3H-vesamicol, 120 min): 0.0405%
specific binding in % of total binding (corrected by nonspecific binding NB), mean ([2]; competitor 1.00E-05 M, experiment 2019-11-21, 2.20E-09 M 3H-vesamicol, 90 min): 1.18e-15%
specific binding in % of total binding (corrected by nonspecific binding NB), mean ([2]; competitor 1.00E-06 M, experiment 2019-10-30, 2.92E-09 M 3H-vesamicol, 120 min): 5%
specific binding in % of total binding (corrected by nonspecific binding NB), mean ([2]; competitor 1.00E-06 M, experiment 2019-11-21, 2.20E-09 M 3H-vesamicol, 90 min): 4%
specific binding in % of total binding (corrected by nonspecific binding NB), mean ([2]; competitor 1.00E-07 M, experiment 2019-10-30, 2.92E-09 M 3H-vesamicol, 120 min): 29%
specific binding in % of total binding (corrected by nonspecific binding NB), mean ([2]; competitor 1.00E-07 M, experiment 2019-11-21, 2.20E-09 M 3H-vesamicol, 90 min): 28%
specific binding in % of total binding (corrected by nonspecific binding NB), mean ([2]; competitor 1.00E-08 M, experiment 2019-10-30, 2.92E-09 M 3H-vesamicol, 120 min): 79%
specific binding in % of total binding (corrected by nonspecific binding NB), mean ([2]; competitor 1.00E-08 M, experiment 2019-11-21, 2.20E-09 M 3H-vesamicol, 90 min): 82%
specific binding in % of total binding (corrected by nonspecific binding NB), mean ([2]; competitor 1.00E-09 M, experiment 2019-10-30, 2.92E-09 M 3H-vesamicol, 120 min): 94%
specific binding in % of total binding (corrected by nonspecific binding NB), mean ([2]; competitor 1.00E-09 M, experiment 2019-11-21, 2.20E-09 M 3H-vesamicol, 90 min): 98%
specific binding in % of total binding (corrected by nonspecific binding NB), mean ([2]; competitor 1.00E-10 M, experiment 2019-10-30, 2.92E-09 M 3H-vesamicol, 120 min): 97%
specific binding in % of total binding (corrected by nonspecific binding NB), mean ([2]; competitor 1.00E-10 M, experiment 2019-11-21, 2.20E-09 M 3H-vesamicol, 90 min): 98%
specific binding in % of total binding (corrected by nonspecific binding NB), mean ([2]; competitor 1.00E-11 M, experiment 2019-10-30, 2.92E-09 M 3H-vesamicol, 120 min): 95%
specific binding in % of total binding (corrected by nonspecific binding NB), mean ([2]; competitor 1.00E-11 M, experiment 2019-11-21, 2.20E-09 M 3H-vesamicol, 90 min): 96%

COP(=O)(OC)C(O)C(Cl)(Cl)Cl (centres unmarked) [trichlorfon]
EC50 ([6]; read-out: EC50 of trichlorfon paralysis, nemacol-1 15 μM): 132 ± 34 µM
EC50 ([6]; read-out: EC50 of trichlorfon paralysis, nemacol-1 30 μM): 178 ± 17 µM
EC50 ([6]; read-out: EC50 of trichlorfon paralysis, nemacol-1 60 μM): 138 ± 60 µM
EC50 ([6]; read-out: EC50 of trichlorfon paralysis, trichlorfon alone): 83 ± 7 µM
EC50 ([6]; read-out: EC50 of trichlorfon paralysis, vesamicol 31.3 μM): 102 ± 11 µM
EC50 ([6]; read-out: EC50 of trichlorfon paralysis, vesamicol 62.5 μM): 121 ± 10 µM
EC50 ([6]; read-out: EC50 of trichlorfon paralysis, vesamicol 125 μM): 145 ± 17 µM
EC50 ([6]; read-out: EC50 of trichlorfon paralysis, vesamicol 250 μM): 180 ± 22 µM
EC50 ([6]; read-out: EC50 of trichlorfon paralysis, vesamicol 500 μM): 201 ± 27 µM
% para (percentage of animals able to adopt a clear sinusoidal wave pattern upon touch on the nose) ([6]; trichlorfon 25 uM, Nemacol-1 0 uM (Nemacol-1 series)): 92.8571% and 100%
% para (percentage of animals able to adopt a clear sinusoidal wave pattern upon touch on the nose) ([6]; trichlorfon 25 uM, vesamicol 0 uM (vesamicol series)): 92.8571% and 100%
% para (percentage of animals able to adopt a clear sinusoidal wave pattern upon touch on the nose) ([6]; trichlorfon 50 uM, Nemacol-1 0 uM (Nemacol-1 series)): 85.7143% and 75% and 67.8571%
% para (percentage of animals able to adopt a clear sinusoidal wave pattern upon touch on the nose) ([6]; trichlorfon 50 uM, vesamicol 0 uM (vesamicol series)): 71.4286% and 75% and 96.4286%
% para (percentage of animals able to adopt a clear sinusoidal wave pattern upon touch on the nose) ([6]; trichlorfon 100 uM, vesamicol 0 uM (vesamicol series)): 42.8571% and 50%
% para (percentage of animals able to adopt a clear sinusoidal wave pattern upon touch on the nose) ([6]; trichlorfon 200 uM, Nemacol-1 0 uM (Nemacol-1 series)): 7.143% and 3.571%
% para (percentage of animals able to adopt a clear sinusoidal wave pattern upon touch on the nose) ([6]; trichlorfon 400 uM, Nemacol-1 0 uM (Nemacol-1 series)): 0%
% para (percentage of animals able to adopt a clear sinusoidal wave pattern upon touch on the nose) ([6]; trichlorfon 400 uM, vesamicol 0 uM (vesamicol series)): 0% and 3.571%
% para (percentage of animals able to adopt a clear sinusoidal wave pattern upon touch on the nose) ([6]; trichlorfon 800 uM, Nemacol-1 0 uM (Nemacol-1 series)): 0%
% para (percentage of animals able to adopt a clear sinusoidal wave pattern upon touch on the nose) ([6]; trichlorfon 800 uM, vesamicol 0 uM (vesamicol series)): 0%
